Paper PMC8607748 (Inorganic chemistry, 2020)

Test system: HL-60 cell line
Format: cell-based
Details: free ligand

Row | Structure (SMILES) | activity of the ejected monodentate ligand (cell killing)
1 | c1ccncc1 [pyridine] | inactive
2 | c1cnccn1 [pyrazine] | inactive
